Experimental findings from PMC4723341, “Ribonuclease H/DNA Polymerase HIV-1 Reverse Transcriptase Dual Inhibitor: Mechanistic Studies on the Allosteric Mode of Action of Isatin-Based Compound RMNC6” (PLoS ONE, 2016) are described below.

One may read the IC50 as the concentration needed to halve the response being measured.

This assay deals with T1, HIV-1 RT-associated RDDP activity, V106A RT (Human immunodeficiency virus type 1 group M subtype B, UniProt P04585, V693A).
T1 construct: The 1:1 ration between the p66/p51 subunits was also verified; made in house; host or cells: E. coli M15
Description: biochemical. Also noted: species or system HIV-1 group M subtype B.

SMILES strings stand for the structures.

`N#Cc1ccc(-c2csc(NN=C3C(=O)Nc4ccccc43)n2)cc1` [RMNC6, (Z)-4-(2-(2-(2-oxoindolin-3-ylidene)hydrazinyl)thiazol-4-yl)benzonitrile] registered an IC50 of 25.1 ± 2.3 µM. Moreover, the “Fold of increase of RDDP IC50 with respect to wt RT” value (V106A RT) is on record as 2.5.
